From ChEMBL document CHEMBL1201862, “PubChem BioAssay data set” (2004)
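Growth conditions: 96-well plates. Treatment: test compound, 48 hours, 5 concentrations. Analysis: linear interpolation between bracketing concentrations; unreached endpoints set to highest concentration. The concentration for 50% growth inhibition is given as GI50.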 Calls of active or inactive are those of the source. Rule as the data show it: active = GI50 up to about 1.1 µM and inactive = higher.

Assays:
Assay in all cases: inhibition of tumour cell growth, NCI panel, 48 h
786-0 = test system: 786-0
KM12 = test system: KM12
M14 = test system: M14
HCT-116 = test system: HCT-116
CCRF-CEM = test system: CCRF-CEM
OVCAR-4 = test system: OVCAR-4
OVCAR-3 = test system: OVCAR-3
SF-268 = test system: SF-268
ACHN = test system: ACHN
SF-539 = test system: SF-539
HCC 2998 = test system: HCC 2998
SNB-19 = test system: SNB-19
SW-620 = test system: SW-620
MDA-MB-435 = test system: MDA-MB-435
A498 = test system: A498
EKVX = test system: EKVX
HCT-15 = test system: HCT-15
Hs-578T = test system: Hs-578T
NCI/ADR-RES = test system: NCI/ADR-RES
NCI-H23 = test system: NCI-H23
HOP-92 = test system: HOP-92
RXF 393 = test system: RXF 393
UO-31 = test system: UO-31
SF-295 = test system: SF-295
BT-549 = test system: BT-549
T47D = test system: T47D
SK-MEL-5 = test system: SK-MEL-5
COLO 205 = test system: COLO 205
SK-MEL-2 = test system: SK-MEL-2
HT-29 = test system: HT-29
UACC-257 = test system: UACC-257
K562 = test system: K562
SK-MEL-28 = test system: SK-MEL-28
PC-3 = test system: PC-3
TK-10 = test system: TK-10
RPMI-8226 = test system: RPMI-8226
HL-60 = test system: HL-60
IGROV-1 = test system: IGROV-1
NCI-H460 = test system: NCI-H460
UACC-62 = test system: UACC-62
SN12C = test system: SN12C
A549 = test system: A549
LOX IMVI = test system: LOX IMVI
U-251 = test system: U-251
NCI-H522 = test system: NCI-H522
MDA-MB-231 = test system: MDA-MB-231
MOLT-4 = test system: MOLT-4
Malme-3M = test system: Malme-3M
SK-OV-3 = test system: SK-OV-3
OVCAR-8 = test system: OVCAR-8
MCF7 = test system: MCF7
HOP-62 = test system: HOP-62
CAKI-1 = test system: CAKI-1
OVCAR-5 = test system: OVCAR-5
DU-145 = test system: DU-145
SNB-75 = test system: SNB-75
NCI-H226 = test system: NCI-H226
MDA-N = test system: MDA-N

Compound: CC(C)c1ccc(NC(=S)NC(=O)c2ccccc2)cc1
- GI50 (786-0): 18.4 µM (inactive)
- GI50 (KM12): 18.2 µM (inactive)
- GI50 (M14): 17.3 µM (inactive)
- GI50 (HCT-116): 22.2 µM (inactive)
- GI50 (CCRF-CEM): 11.4 µM (inactive)
- GI50 (OVCAR-4): 16.9 µM (inactive)
- GI50 (OVCAR-3): 18.1 µM (inactive)
- GI50 (SF-268): 21.4 µM (inactive)
- GI50 (ACHN): 18.2 µM (inactive)
- GI50 (SF-539): 36.2 µM (inactive)
- GI50 (HCC 2998): 16 µM (inactive)
- GI50 (SNB-19): 48.4 µM (inactive)
- GI50 (SW-620): 22.3 µM (inactive)
- GI50 (MDA-MB-435): 13.8 µM (inactive)
- GI50 (A498): 22.9 µM (inactive)
- GI50 (EKVX): 30.8 µM (inactive)
- GI50 (HCT-15): 17.6 µM
- GI50 (Hs-578T): 31.8 µM (inactive)
- GI50 (NCI/ADR-RES): 31.7 µM (inactive)
- GI50 (NCI-H23): 23 µM (inactive)
- GI50 (HOP-92): 40.9 µM (inactive)
- GI50 (RXF 393): 18.6 µM (inactive)
- GI50 (UO-31): 3.94 µM (inactive)
- GI50 (SF-295): 14.1 µM (inactive)
- GI50 (BT-549): 24.9 µM (inactive)
- GI50 (T47D): 18.7 µM (inactive)
- GI50 (SK-MEL-5): 13.4 µM (inactive)
- GI50 (COLO 205): 16.3 µM (inactive)
- GI50 (SK-MEL-2): 20 µM (inactive)
- GI50 (HT-29): 10.4 µM (inactive)
- GI50 (UACC-257): 14.8 µM (inactive)
- GI50 (K562): 12.1 µM (inactive)
- GI50 (SK-MEL-28): 20.8 µM (inactive)
- GI50 (PC-3): 36.5 µM (inactive)
- GI50 (TK-10): 18.2 µM (inactive)
- GI50 (RPMI-8226): 23.7 µM (inactive)
- GI50 (HL-60): 3.82 µM (inactive)
- GI50 (IGROV-1): 25.4 µM (inactive)
- GI50 (NCI-H460): 15.5 µM (inactive)
- GI50 (UACC-62): 13.6 µM (inactive)
- GI50 (SN12C): 34.6 µM (inactive)
- GI50 (A549): 30.8 µM (inactive)
- GI50 (LOX IMVI): 15.3 µM (inactive)
- GI50 (U-251): 26.9 µM (inactive)
- GI50 (NCI-H522): 17.4 µM (inactive)
- GI50 (MDA-MB-231): 26.6 µM (inactive)
- GI50 (MOLT-4): 13.1 µM (inactive)
- GI50 (Malme-3M): 24.5 µM (inactive)
- GI50 (SK-OV-3): 42 µM (inactive)
- GI50 (OVCAR-8): 32.3 µM (inactive)
- GI50 (MCF7): 18.4 µM (inactive)
- GI50 (HOP-62): 33.8 µM (inactive)
- GI50 (CAKI-1): 20.5 µM (inactive)
- GI50 (OVCAR-5): 28.3 µM (inactive)
- GI50 (DU-145): 23.2 µM (inactive)

Compound: O=C1c2ccccc2-c2c1c(-c1ccccc1)c1n2C2(C(=O)c3ccccc3C2=O)C2C(=O)N(c3ccccc3)C(=O)C12 (stereo not given)
- GI50 (786-0): 23.4 µM (inactive)
- GI50 (KM12): 19.8 µM (inactive)
- GI50 (M14): 34.1 µM (inactive)
- GI50 (SNB-75): 17.3 µM (inactive)
- GI50 (HCT-116): 17.9 µM (inactive)
- GI50 (CCRF-CEM): 26.1 µM (inactive)
- GI50 (OVCAR-4): 31.4 µM (inactive)
- GI50 (OVCAR-3): 24.3 µM (inactive)
- GI50 (SF-268): 21.1 µM (inactive)
- GI50 (ACHN): 31.9 µM (inactive)
- GI50 (SF-539): 15.4 µM (inactive)
- GI50 (SNB-19): 27.7 µM (inactive)
- GI50 (SW-620): 31.5 µM (inactive)
- GI50 (MDA-MB-435): 19.8 µM (inactive)
- GI50 (A498): 28.1 µM (inactive)
- GI50 (EKVX): 24 µM (inactive)
- GI50 (HCT-15): 16.4 µM
- GI50 (Hs-578T): 17.8 µM (inactive)
- GI50 (NCI/ADR-RES): 74.6 µM (inactive)
- GI50 (NCI-H23): 17.4 µM (inactive)
- GI50 (HOP-92): 23.8 µM (inactive)
- GI50 (RXF 393): 17.6 µM (inactive)
- GI50 (UO-31): 28.4 µM (inactive)
- GI50 (SF-295): 34.4 µM (inactive)
- GI50 (BT-549): 17.5 µM (inactive)
- GI50 (T47D): 16.9 µM (inactive)
- GI50 (SK-MEL-5): 18.2 µM (inactive)
- GI50 (COLO 205): 18.5 µM (inactive)
- GI50 (SK-MEL-2): 22.6 µM (inactive)
- GI50 (HT-29): 17.7 µM (inactive)
- GI50 (UACC-257): 30.6 µM (inactive)
- GI50 (SK-MEL-28): 28.9 µM (inactive)
- GI50 (PC-3): 26.6 µM (inactive)
- GI50 (TK-10): 28.1 µM (inactive)
- GI50 (IGROV-1): 32.3 µM (inactive)
- GI50 (NCI-H460): 12 µM (inactive)
- GI50 (UACC-62): 21.6 µM (inactive)
- GI50 (SN12C): 19.9 µM (inactive)
- GI50 (A549): 85.1 µM (inactive)
- GI50 (LOX IMVI): 17 µM (inactive)
- GI50 (U-251): 35.9 µM (inactive)
- GI50 (NCI-H522): 12.9 µM (inactive)
- GI50 (MOLT-4): 40.6 µM (inactive)
- GI50 (Malme-3M): 23.9 µM (inactive)
- GI50 (SK-OV-3): 41.9 µM (inactive)
- GI50 (OVCAR-8): 32.2 µM (inactive)
- GI50 (NCI-H226): 19.3 µM (inactive)
- GI50 (MCF7): 24.8 µM (inactive)
- GI50 (HOP-62): 26.3 µM (inactive)
- GI50 (MDA-N): 24.7 µM (inactive)
- GI50 (CAKI-1): 34.4 µM (inactive)
- GI50 (OVCAR-5): 17.4 µM (inactive)
- GI50 (DU-145): 28.5 µM (inactive)

Compound: CCCCCCOC(=O)/C=C/[C@]1(CO)C/C(=C/CC(C(C)C)C(C)C)C(=O)O1
- GI50 (786-0): 4.36 µM (inactive)
- GI50 (KM12): 16 µM (inactive)
- GI50 (M14): 12.1 µM (inactive)
- GI50 (SNB-75): 14.2 µM (inactive)
- GI50 (HCT-116): 13.2 µM (inactive)
- GI50 (OVCAR-4): 19.1 µM (inactive)
- GI50 (OVCAR-3): 11.9 µM (inactive)
- GI50 (SF-268): 10.9 µM (inactive)
- GI50 (ACHN): 6.95 µM (inactive)
- GI50 (HCC 2998): 2.2 µM (inactive)
- GI50 (SNB-19): 10.5 µM (inactive)
- GI50 (SW-620): 12.5 µM (inactive)
- GI50 (MDA-MB-435): 0.738 µM (active)
- GI50 (A498): 4.82 µM (inactive)
- GI50 (EKVX): 1.28 µM (inactive)
- GI50 (HCT-15): 14.6 µM
- GI50 (Hs-578T): 4.75 µM (inactive)
- GI50 (NCI/ADR-RES): 13.9 µM (inactive)
- GI50 (NCI-H23): 12.2 µM (inactive)
- GI50 (HOP-92): 12.1 µM (inactive)
- GI50 (RXF 393): 18.2 µM (inactive)
- GI50 (UO-31): 4.46 µM (inactive)
- GI50 (SF-295): 10.4 µM (inactive)
- GI50 (BT-549): 10.5 µM (inactive)
- GI50 (T47D): 16.8 µM (inactive)
- GI50 (SK-MEL-5): 2.13 µM (inactive)
- GI50 (SK-MEL-2): 16.2 µM (inactive)
- GI50 (HT-29): 7.33 µM (inactive)
- GI50 (UACC-257): 16.5 µM (inactive)
- GI50 (K562): 0.406 µM (active)
- GI50 (SK-MEL-28): 10.4 µM (inactive)
- GI50 (PC-3): 11.5 µM (inactive)
- GI50 (TK-10): 1.77 µM (inactive)
- GI50 (RPMI-8226): 15.7 µM (inactive)
- GI50 (HL-60): 2.7 µM (inactive)
- GI50 (IGROV-1): 15.1 µM (inactive)
- GI50 (NCI-H460): 1.74 µM (inactive)
- GI50 (UACC-62): 13.9 µM (inactive)
- GI50 (A549): 2.99 µM (inactive)
- GI50 (LOX IMVI): 10.6 µM (inactive)
- GI50 (NCI-H522): 12.3 µM (inactive)
- GI50 (MOLT-4): 1.58 µM (inactive)
- GI50 (Malme-3M): 12.2 µM (inactive)
- GI50 (SK-OV-3): 18.2 µM (inactive)
- GI50 (OVCAR-8): 16.7 µM (inactive)
- GI50 (NCI-H226): 3.41 µM (inactive)
- GI50 (MCF7): 16 µM (inactive)
- GI50 (HOP-62): 8.41 µM (inactive)
- GI50 (MDA-N): 1.39 µM (inactive)
- GI50 (CAKI-1): 10.9 µM (inactive)
- GI50 (OVCAR-5): 11.6 µM (inactive)
- GI50 (DU-145): 18.2 µM (inactive)
